Tests used:
GSPT1 = biological target: T1, GSPT1 (Homo sapiens, UniProt P15170+Q96SW2); experiment: Western blot degradation of GSPT1 in hPBMCs (24 h); format: cell-based; conditions: compounds at 50 nM and 500 nM
T1 construct: The supernatant was aspirated as the extracted total cell protein; endogenous in cells; host or cells: human peripheral blood mononuclear cells (hPBMCs)
In short: (§1)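 hPBMCs (1×10^6 cells/mL) were treated with compound at 50 nM and 500 nM for 24 h, lysed in RIPA with protease inhibitors and analysed by SDS-PAGE/Western blot. Band grayscale, normalised to internal control, gave protein remaining (%); DC50 estimated versus DMSO bands.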

MM.1S cells = experiment: Inhibition of proliferation of multiple myeloma cells MM.1S (cell viability assay, 96 h); format: cell-based, human; conditions: read-out: inhibitory activity (IC50) against tumor cells proliferation, MM.1S
Protocol: (§2) The tumor cells used herein were cultured in a cell culture medium listed in table 2 at 37 °C in an incubator with 5% CO2. Prior to experimentation, all cell lines used were correctly identified by STR profiling, and tested negative for Mycoplasma contamination using a Mycoplasma detection kit through routine screenings.
(§3) The IC50 values of the compounds of the present disclosure (including the compounds in Table 1, and Examples 1-498) were determined using the CellTiter-Meiluncell Luminescent Cell Viability Assay Kit from Dalian Meilun Biotech Co., Ltd. The detailed procedure is as follows: Tumor cells were seeded in 96-well cell culture plates at the densities specified in Table 3. On the following day, the test compounds of the present disclosure were subjected to serial dilution. […] Subsequently, 0.5 μL of the test compound dilution was transferred into the 96-well plate containing the cells, with each well containing 100 μL of cell culture medium. […] Into the 96-well plate, the diluted test compounds and corresponding detection reagents were added, resulting in final test compound concentrations of 500 nM and 10 nM, respectively. The experimental procedure is described below using the diluted 2 μM test compound as an example.
(§4) 0.5 μL of the aforementioned diluted compound of the present disclosure (including the compounds in Table 1, and Examples 1-498) was added to the seeded cells in 100 μL of medium, yielding a final test compound concentration of 10 nM. After the cells were treated with the compounds of the present disclosure for a specified period, the cell viability assay reagent was added to the culture medium according to the kit's instructions to determine cell viability. […] All controls were treated using the same procedure as the compounds of the present disclosure. The growth inhibition curves for the compounds of the present disclosure were plotted using Prism GraphPad software, and the IC50 values were calculated therefrom.

IKZF1 = biological target: T2, IKZF1 (Homo sapiens, UniProt Q13422+Q96SW2); experiment: Western blot degradation of IKZF1 in hPBMCs (24 h); format: cell-based; conditions: compounds at 50 nM and 500 nM
T2 construct: The supernatant was aspirated as the extracted total cell protein; endogenous in cells; host or cells: human peripheral blood mononuclear cells (hPBMCs)
In short: as §1

IKZF3 = biological target: T3, IKZF3 (Homo sapiens, UniProt Q96SW2+Q9UKT9); experiment: Western blot degradation of IKZF3 in hPBMCs (24 h); format: cell-based; conditions: compounds at 50 nM and 500 nM
T3 construct: The supernatant was aspirated as the extracted total cell protein; endogenous in cells; host or cells: human peripheral blood mononuclear cells (hPBMCs)
In short: as §1

WEE1 = biological target: T4, WEE1 (Homo sapiens, UniProt P30291+Q96SW2); experiment: Western blot degradation of WEE1 in hPBMCs (24 h); format: cell-based; conditions: compounds at 50 nM and 500 nM
T4 construct: The supernatant was aspirated as the extracted total cell protein; endogenous in cells; host or cells: human peripheral blood mononuclear cells (hPBMCs)
In short: as §1

IKZF2 = biological target: T5, IKZF2 (Homo sapiens, UniProt Q96SW2+Q9UKS7); experiment: Western blot degradation of IKZF2 in hPBMCs (24 h); format: cell-based; conditions: compounds at 50 nM and 500 nM
T5 construct: The supernatant was aspirated as the extracted total cell protein; endogenous in cells; host or cells: human peripheral blood mononuclear cells (hPBMCs)
In short: as §1

Jurkat cells = experiment: Inhibition of proliferation of T lymphocytic leukemia cells Jurkat (cell viability assay, 96 h); format: cell-based, human; conditions: read-out: inhibitory activity (IC50) against tumor cells proliferation, Jurkat
Protocol: as §2, §3, §4

CK1α = biological target: T6, CK1α (Homo sapiens, UniProt P48729+Q96SW2); experiment: Western blot degradation of CK1α in hPBMCs (24 h); format: cell-based; conditions: compounds at 50 nM and 500 nM
T6 construct: The supernatant was aspirated as the extracted total cell protein; endogenous in cells; host or cells: human peripheral blood mononuclear cells (hPBMCs)
In short: as §1

T3 sequence (Q9UKT9 whole entry): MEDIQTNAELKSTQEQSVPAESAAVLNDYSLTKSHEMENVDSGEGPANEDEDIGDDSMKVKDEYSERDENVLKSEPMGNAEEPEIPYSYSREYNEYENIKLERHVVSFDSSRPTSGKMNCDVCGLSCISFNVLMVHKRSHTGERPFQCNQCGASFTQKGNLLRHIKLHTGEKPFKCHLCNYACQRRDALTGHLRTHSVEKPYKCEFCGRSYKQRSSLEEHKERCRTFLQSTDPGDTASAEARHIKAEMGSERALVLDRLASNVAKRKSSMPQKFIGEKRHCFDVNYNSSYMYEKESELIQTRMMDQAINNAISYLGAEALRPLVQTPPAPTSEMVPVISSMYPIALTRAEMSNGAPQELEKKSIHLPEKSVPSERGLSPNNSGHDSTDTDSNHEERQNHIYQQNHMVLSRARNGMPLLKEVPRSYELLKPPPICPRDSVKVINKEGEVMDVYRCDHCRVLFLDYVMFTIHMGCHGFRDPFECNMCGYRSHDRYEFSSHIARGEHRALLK
T3 sequence (Q96SW2 whole entry): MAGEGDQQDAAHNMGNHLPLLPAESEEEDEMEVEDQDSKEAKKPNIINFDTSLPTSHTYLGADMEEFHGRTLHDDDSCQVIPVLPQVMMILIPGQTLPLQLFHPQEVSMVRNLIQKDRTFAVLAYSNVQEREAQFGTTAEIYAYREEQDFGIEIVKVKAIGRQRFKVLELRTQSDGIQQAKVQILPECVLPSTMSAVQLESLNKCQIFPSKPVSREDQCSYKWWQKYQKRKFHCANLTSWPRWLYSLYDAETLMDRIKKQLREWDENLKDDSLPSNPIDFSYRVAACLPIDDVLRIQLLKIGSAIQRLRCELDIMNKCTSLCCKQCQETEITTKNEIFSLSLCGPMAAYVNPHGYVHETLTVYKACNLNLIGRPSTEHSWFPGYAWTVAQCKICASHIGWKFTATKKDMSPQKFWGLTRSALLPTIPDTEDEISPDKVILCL
T3 sequence (Q16531 whole entry partner): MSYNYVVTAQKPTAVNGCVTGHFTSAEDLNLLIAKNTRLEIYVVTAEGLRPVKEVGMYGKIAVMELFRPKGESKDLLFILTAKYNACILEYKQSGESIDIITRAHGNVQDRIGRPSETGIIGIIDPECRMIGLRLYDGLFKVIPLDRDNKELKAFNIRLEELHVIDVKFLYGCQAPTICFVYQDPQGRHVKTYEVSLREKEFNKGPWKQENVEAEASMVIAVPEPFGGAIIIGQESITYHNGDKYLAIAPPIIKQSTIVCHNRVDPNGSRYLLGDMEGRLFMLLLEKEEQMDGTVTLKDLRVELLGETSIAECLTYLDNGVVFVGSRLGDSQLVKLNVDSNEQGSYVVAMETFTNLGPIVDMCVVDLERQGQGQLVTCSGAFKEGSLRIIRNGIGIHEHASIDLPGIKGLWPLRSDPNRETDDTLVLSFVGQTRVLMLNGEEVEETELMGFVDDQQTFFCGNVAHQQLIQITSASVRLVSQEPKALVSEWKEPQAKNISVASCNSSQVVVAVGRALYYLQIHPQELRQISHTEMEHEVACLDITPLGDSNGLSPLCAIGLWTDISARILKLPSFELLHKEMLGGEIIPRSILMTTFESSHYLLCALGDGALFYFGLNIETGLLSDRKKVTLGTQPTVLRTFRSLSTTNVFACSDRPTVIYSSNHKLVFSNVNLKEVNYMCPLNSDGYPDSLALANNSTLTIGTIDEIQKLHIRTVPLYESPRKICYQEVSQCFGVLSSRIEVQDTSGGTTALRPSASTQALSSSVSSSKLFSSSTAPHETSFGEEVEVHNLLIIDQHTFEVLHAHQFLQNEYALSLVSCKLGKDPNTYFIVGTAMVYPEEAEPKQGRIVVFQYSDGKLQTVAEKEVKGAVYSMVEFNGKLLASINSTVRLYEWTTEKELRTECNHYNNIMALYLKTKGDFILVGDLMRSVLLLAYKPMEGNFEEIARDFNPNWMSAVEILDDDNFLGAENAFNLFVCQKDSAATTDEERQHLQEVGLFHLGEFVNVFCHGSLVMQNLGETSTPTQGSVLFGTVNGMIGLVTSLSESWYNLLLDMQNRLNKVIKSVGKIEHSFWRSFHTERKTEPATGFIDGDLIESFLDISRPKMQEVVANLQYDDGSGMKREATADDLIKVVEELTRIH
T4 sequence (P30291 whole entry): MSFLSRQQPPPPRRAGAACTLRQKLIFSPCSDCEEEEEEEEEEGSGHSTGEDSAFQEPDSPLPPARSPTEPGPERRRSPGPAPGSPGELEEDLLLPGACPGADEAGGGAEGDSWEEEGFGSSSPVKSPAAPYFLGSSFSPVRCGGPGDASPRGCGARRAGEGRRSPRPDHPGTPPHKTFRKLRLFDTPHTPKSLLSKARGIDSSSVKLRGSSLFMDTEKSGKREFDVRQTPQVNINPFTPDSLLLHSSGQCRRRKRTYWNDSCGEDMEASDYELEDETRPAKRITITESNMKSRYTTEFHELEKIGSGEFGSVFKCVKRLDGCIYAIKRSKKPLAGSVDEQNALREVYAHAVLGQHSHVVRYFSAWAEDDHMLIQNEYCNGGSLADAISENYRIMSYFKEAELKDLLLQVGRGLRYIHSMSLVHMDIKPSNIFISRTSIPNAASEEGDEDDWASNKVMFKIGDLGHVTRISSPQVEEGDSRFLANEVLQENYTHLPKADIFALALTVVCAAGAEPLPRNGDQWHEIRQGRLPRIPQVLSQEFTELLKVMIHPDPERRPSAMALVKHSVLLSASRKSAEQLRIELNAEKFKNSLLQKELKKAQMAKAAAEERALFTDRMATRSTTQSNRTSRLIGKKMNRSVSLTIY
T4 sequence (Q96SW2 whole entry): as the sequence (Q96SW2 whole entry) above
T4 sequence (Q16531 whole entry partner): as the sequence (Q16531 whole entry partner) above
T6 sequence (P48729 whole entry): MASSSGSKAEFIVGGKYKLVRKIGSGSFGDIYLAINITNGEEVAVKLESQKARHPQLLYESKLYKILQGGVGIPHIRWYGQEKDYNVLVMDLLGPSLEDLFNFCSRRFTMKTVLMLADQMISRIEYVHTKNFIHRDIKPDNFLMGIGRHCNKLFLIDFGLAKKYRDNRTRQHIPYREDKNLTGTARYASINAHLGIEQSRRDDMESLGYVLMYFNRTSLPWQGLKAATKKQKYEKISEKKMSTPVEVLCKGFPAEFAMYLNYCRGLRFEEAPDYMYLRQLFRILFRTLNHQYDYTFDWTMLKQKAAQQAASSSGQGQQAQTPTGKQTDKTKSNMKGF
T6 sequence (Q96SW2 whole entry): as the sequence (Q96SW2 whole entry) above
T6 sequence (Q16531 whole entry partner): as the sequence (Q16531 whole entry partner) above
T1 sequence (P15170 whole entry): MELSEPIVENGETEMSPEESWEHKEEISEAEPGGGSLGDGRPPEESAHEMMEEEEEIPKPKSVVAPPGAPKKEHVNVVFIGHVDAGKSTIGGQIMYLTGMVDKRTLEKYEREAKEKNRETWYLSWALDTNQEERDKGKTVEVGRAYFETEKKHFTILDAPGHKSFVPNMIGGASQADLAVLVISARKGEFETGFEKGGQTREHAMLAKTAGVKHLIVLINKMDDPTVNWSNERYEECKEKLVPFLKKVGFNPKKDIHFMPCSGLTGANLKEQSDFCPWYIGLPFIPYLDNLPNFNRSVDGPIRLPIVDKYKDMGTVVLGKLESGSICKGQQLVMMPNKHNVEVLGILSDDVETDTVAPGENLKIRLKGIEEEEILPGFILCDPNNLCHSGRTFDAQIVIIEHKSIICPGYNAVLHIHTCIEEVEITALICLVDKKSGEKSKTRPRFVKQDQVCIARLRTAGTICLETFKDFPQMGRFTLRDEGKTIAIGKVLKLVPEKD
T1 sequence (Q96SW2 whole entry): as the sequence (Q96SW2 whole entry) above
T1 sequence (Q16531 whole entry partner): as the sequence (Q16531 whole entry partner) above
T5 sequence (Q9UKS7 whole entry): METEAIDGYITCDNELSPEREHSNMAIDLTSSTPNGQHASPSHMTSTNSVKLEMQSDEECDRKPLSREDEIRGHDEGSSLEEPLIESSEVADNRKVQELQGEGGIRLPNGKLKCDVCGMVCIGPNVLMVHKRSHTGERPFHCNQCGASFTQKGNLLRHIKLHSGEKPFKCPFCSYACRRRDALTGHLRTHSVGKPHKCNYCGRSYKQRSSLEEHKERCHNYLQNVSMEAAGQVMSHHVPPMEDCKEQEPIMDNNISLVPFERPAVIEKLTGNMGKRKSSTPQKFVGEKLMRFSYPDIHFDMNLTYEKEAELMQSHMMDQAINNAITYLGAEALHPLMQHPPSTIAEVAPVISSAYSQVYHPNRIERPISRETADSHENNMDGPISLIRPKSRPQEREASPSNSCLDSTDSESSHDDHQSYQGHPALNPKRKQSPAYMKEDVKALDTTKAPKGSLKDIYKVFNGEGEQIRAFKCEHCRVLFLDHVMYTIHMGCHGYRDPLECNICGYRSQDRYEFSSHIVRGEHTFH
T5 sequence (Q96SW2 whole entry): as the sequence (Q96SW2 whole entry) above
T5 sequence (Q16531 whole entry partner): as the sequence (Q16531 whole entry partner) above

Row | Structure (SMILES) | GSPT1 substrate protein remaining % (GSPT1) | IC50 (MM.1S cells) [nM] | IKZF1 substrate protein remaining % (IKZF1) | IKZF3 substrate protein remaining % (IKZF3) | WEE1 substrate protein remaining % (WEE1) | IKZF2 substrate protein remaining % (IKZF2) | IC50 (Jurkat cells) [nM] | CK1α substrate protein remaining % (CK1α)
1 | O=C1CCN(N2Cc3cc(CN4CC=C(c5ccnc(Cl)c5Cl)CC4)ccc3C2=O)C(=O)N1 [GT-07432, 1-(5-((2′,3′-dichloro-3,6-dihydro-[4,4′-bipyridin]-1(2H)-yl)methyl)-1-oxoisoindolin-2-yl)dihydropyrimidine-2,4(1H,3H)-dione] | A (0% ≤ substrate protein remaining % ≤80%) | 300 to 500 | A (0% ≤ substrate protein remaining % ≤80%) | A (0% ≤ substrate protein remaining % ≤80%) | A (0% ≤ substrate protein remaining % ≤80%) | A (0% ≤ substrate protein remaining % ≤80%) | 500 to 1000 | A (0% ≤ substrate protein remaining % ≤80%)
2 | O=C1CCN(N2Cc3cc(CN4CC=C(c5c[nH]c6ncccc56)CC4)ccc3C2=O)C(=O)N1 [GT-07577, 1-(5-((4-(1H-pyrrolo[2,3-b]pyridin-3-yl)-3,6-dihydropyridin-1 (2H)-yl)methyl)-1-oxoisoindolin-2-yl)dihydropyrimidine-2,4(1H,3H)-dione] | A (0% ≤ substrate protein remaining % ≤80%) | 300 to 500 | A (0% ≤ substrate protein remaining % ≤80%) | A (0% ≤ substrate protein remaining % ≤80%) | A (0% ≤ substrate protein remaining % ≤80%) | B (80%< substrate protein remaining % ≤100%) | 500 to 1000 | A (0% ≤ substrate protein remaining % ≤80%)
3 | O=C1CCN(N2Cc3cc(CN4CC=C(c5n[nH]c6cc(F)ccc56)CC4)ccc3C2=O)C(=O)N1 [GT-07578, 1-(5-((4-(6-fluoro-1H-indazol-3-yl)-3,6-dihydropyridin-1(2H)-yl)methyl)-1-oxoisoindolin-2-yl)dihydropyrimidine-2,4(1H,3H)-dione] | A (0% ≤ substrate protein remaining % ≤80%) | 50 to 100 | A (0% ≤ substrate protein remaining % ≤80%) | B (80%< substrate protein remaining % ≤100%) | A (0% ≤ substrate protein remaining % ≤80%) | A (0% ≤ substrate protein remaining % ≤80%) | 50 to 100 | B (80%< substrate protein remaining % ≤100%)
4 | O=C1CCN(N2C(=O)c3ccc(CN4CCN(c5ncc(C(F)(F)F)cc5Cl)CC4)cc3C2=O)C(=O)N1 [GT-07026, 5-((4-(3-chloro-5-(trifluoromethyl)pyridin-2-yl)piperazin-1-yl)methyl)-2-(2,4-dioxotetrahydropyrimidin-1(2H)-yl)isoindoline-1,3-dione] | A (0% ≤ substrate protein remaining % ≤80%) |  | B (80%< substrate protein remaining % ≤100%) | B (80%< substrate protein remaining % ≤100%) | A (0% ≤ substrate protein remaining % ≤80%) | B (80%< substrate protein remaining % ≤100%) | 500 to 1000 | B (80%< substrate protein remaining % ≤100%)
5 | Cc1ccc(C2CCN(Cc3ccc4c(c3)CN(N3CCC(=O)NC3=O)C4=O)CC2)s1 [GT-07425, 1-(5-((4-(5-methylthiophen-2-yl)piperidin-1-yl)methyl)-1-oxoisoindolin-2-yl)dihydropyrimidine-2,4(1H,3H)-dione] | A (0% ≤ substrate protein remaining % ≤80%) | 500 to 1000 | B (80%< substrate protein remaining % ≤100%) | B (80%< substrate protein remaining % ≤100%) | B (80%< substrate protein remaining % ≤100%) | B (80%< substrate protein remaining % ≤100%) |  | B (80%< substrate protein remaining % ≤100%)
6 | O=C1CCN(N2Cc3cc(CN4CC=C(c5ccoc5)CC4)ccc3C2=O)C(=O)N1 [GT-04875, 1-(5-((4-(furan-3-yl)-3,6-dihydropyridin-1(2H)-yl)methyl)-1-oxoisoindolin-2-yl)dihydropyrimidine-2,4(1H,3H)-dione] | A (0% ≤ substrate protein remaining % ≤80%) | 300 to 500 | B (80%< substrate protein remaining % ≤100%) | B (80%< substrate protein remaining % ≤100%) | A (0% ≤ substrate protein remaining % ≤80%) | B (80%< substrate protein remaining % ≤100%) |  | B (80%< substrate protein remaining % ≤100%)
7 | O=C1CCN(N2Cc3cc(CN4CCN(c5cccc(Cl)n5)CC4)ccc3C2=O)C(=O)N1 [GT-05126, 1-(5-((4-(6-chloropyridin-2-yl)piperazin-1-yl)methyl)-1-oxoisoindolin-2-yl)dihydropyrimidine-2,4(1H,3H)-dione] | A (0% ≤ substrate protein remaining % ≤80%) | 300 to 500 | A (0% ≤ substrate protein remaining % ≤80%) | A (0% ≤ substrate protein remaining % ≤80%) | A (0% ≤ substrate protein remaining % ≤80%) | A (0% ≤ substrate protein remaining % ≤80%) |  | A (0% ≤ substrate protein remaining % ≤80%)
8 | O=C1CCN(N2Cc3cc(CN4CC(N5CCc6cc(F)ccc65)C4)ccc3C2=O)C(=O)N1 [GT-05169, 1-(5-((3-(5-fluoroindolin-1-yl)azetidin-1-yl)methyl)-1-oxoisoindolin-2-yl)dihydropyrimidine-2,4(1H,3H)-dione] | A (0% ≤ substrate protein remaining % ≤80%) | 100 to 300 | B (80%< substrate protein remaining % ≤100%) | A (0% ≤ substrate protein remaining % ≤80%) | B (80%< substrate protein remaining % ≤100%) | A (0% ≤ substrate protein remaining % ≤80%) |  | B (80%< substrate protein remaining % ≤100%)
9 | O=C1CCN(N2Cc3cc(CN4CC=C(c5nccc(Cl)c5Cl)CC4)ccc3C2=O)C(=O)N1 [GT-06392, 1-(5-((3,4-dichloro-3′,6′-dihydro-[2,4′-bipyridin]-1′ (2′H)-yl)methyl)-1-oxoisoindolin-2-yl)dihydropyrimidine-2,4(1H,3H)-dione] | A (0% ≤ substrate protein remaining % ≤80%) | 300 to 500 | B (80%< substrate protein remaining % ≤100%) | A (0% ≤ substrate protein remaining % ≤80%) | A (0% ≤ substrate protein remaining % ≤80%) | A (0% ≤ substrate protein remaining % ≤80%) |  | A (0% ≤ substrate protein remaining % ≤80%)

From patent publication US20260356819A1, “OXOISOINDOLINYL-SUBSTITUTED […] DERIVATIVE AND USE THEREOF” (GLUETACS THERAPEUTICS (SHANGHAI) CO., LTD., priority 2023, published 2026)
